Experimental data taken from PubChem BioAssay (NCI).
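Cultured in 96-well plates, cells were exposed to test compound for 48 hours across five concentrations. Definition used: TGI = concentration required for complete inhibition of growth.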

Experiments:
Test in all cases: NCI tumour cell line growth inhibition, 48 h
NCI/ADR-RES ovarian = tested on: NCI/ADR-RES ovarian
SF-268 CNS = tested on: SF-268 CNS
SNB-19 CNS = tested on: SNB-19 CNS
SK-MEL-2 melanoma = tested on: SK-MEL-2 melanoma
COLO 205 colon = tested on: COLO 205 colon
SN12C renal = tested on: SN12C renal
SW-620 colon = tested on: SW-620 colon
SR leukemia = tested on: SR leukemia
LOX IMVI melanoma = tested on: LOX IMVI melanoma
HCT-15 colon = tested on: HCT-15 colon
MALME-3M melanoma = tested on: MALME-3M melanoma
786-0 renal = tested on: 786-0 renal
OVCAR-5 ovarian = tested on: OVCAR-5 ovarian
MDA-MB-435 = tested on: MDA-MB-435
U251 CNS = tested on: U251 CNS
HOP-92 NSCLC = tested on: HOP-92 NSCLC
SF-539 CNS = tested on: SF-539 CNS
UACC-62 melanoma = tested on: UACC-62 melanoma
IGROV1 ovarian = tested on: IGROV1 ovarian
NCI-H23 lung = tested on: NCI-H23 lung
HS 578T breast = tested on: HS 578T breast
T-47D breast = tested on: T-47D breast
CAKI-1 renal = tested on: CAKI-1 renal
UO-31 renal = tested on: UO-31 renal
PC-3 prostate = tested on: PC-3 prostate
SNB-75 CNS = tested on: SNB-75 CNS
K-562 leukemia = tested on: K-562 leukemia
DU-145 prostate = tested on: DU-145 prostate
OVCAR-3 ovarian = tested on: OVCAR-3 ovarian
ACHN renal = tested on: ACHN renal
RPMI-8226 leukemia = tested on: RPMI-8226 leukemia
MOLT-4 leukemia = tested on: MOLT-4 leukemia
HT29 colon = tested on: HT29 colon
SK-MEL-5 melanoma = tested on: SK-MEL-5 melanoma
RXF 393 renal = tested on: RXF 393 renal
SF-295 CNS = tested on: SF-295 CNS
M14 melanoma = tested on: M14 melanoma
A549 NSCLC = tested on: A549 NSCLC
EKVX NSCLC = tested on: EKVX NSCLC
CCRF-CEM leukemia = tested on: CCRF-CEM leukemia
BT-549 breast = tested on: BT-549 breast
NCI-H226 lung = tested on: NCI-H226 lung
HCT-116 colon = tested on: HCT-116 colon
A498 renal = tested on: A498 renal
HL-60(TB) leukemia = tested on: HL-60(TB) leukemia
UACC-257 melanoma = tested on: UACC-257 melanoma
NCI-H460 lung = tested on: NCI-H460 lung
MDA-N = tested on: MDA-N
HOP-62 NSCLC = tested on: HOP-62 NSCLC
HCC-2998 colon = tested on: HCC-2998 colon
MCF7 breast = tested on: MCF7 breast
KM12 colon = tested on: KM12 colon
MDA-MB-231 breast = tested on: MDA-MB-231 breast
OVCAR-4 ovarian = tested on: OVCAR-4 ovarian
SK-MEL-28 melanoma = tested on: SK-MEL-28 melanoma
NCI-H522 lung = tested on: NCI-H522 lung
OVCAR-8 ovarian = tested on: OVCAR-8 ovarian

Compound: O=c1cc(-c2ccccc2)c2ccc(O)c(CN(CCCl)CCCl)c2o1
- TGI (NCI/ADR-RES ovarian): > 100 µM
- TGI (SF-268 CNS): 44.5 µM
- TGI (SNB-19 CNS): 47 µM
- TGI (SK-MEL-2 melanoma): 59.8 µM
- TGI (COLO 205 colon): 25.9 µM
- TGI (SN12C renal): 38.5 µM
- TGI (SW-620 colon): 69.7 µM
- TGI (SR leukemia): 33.1 µM
- TGI (LOX IMVI melanoma): 22.1 µM
- TGI (HCT-15 colon): 45.2 µM
- TGI (MALME-3M melanoma): 41.3 µM
- TGI (786-0 renal): 39.3 µM
- TGI (OVCAR-5 ovarian): 34.1 µM
- TGI (MDA-MB-435): 39.9 µM
- TGI (U251 CNS): 56.9 µM
- TGI (HOP-92 NSCLC): 56.8 µM
- TGI (SF-539 CNS): 44.4 µM
- TGI (UACC-62 melanoma): 51.6 µM
- TGI (IGROV1 ovarian): 33.8 µM
- TGI (NCI-H23 lung): 41.7 µM
- TGI (HS 578T breast): 69.5 µM
- TGI (T-47D breast): 55.6 µM
- TGI (CAKI-1 renal): 29.1 µM
- TGI (UO-31 renal): 36.9 µM
- TGI (PC-3 prostate): 36.8 µM
- TGI (SNB-75 CNS): 38.9 µM
- TGI (K-562 leukemia): 91.5 µM
- TGI (DU-145 prostate): > 100 µM
- TGI (OVCAR-3 ovarian): 40.4 µM
- TGI (ACHN renal): 64 µM
- TGI (RPMI-8226 leukemia): 47.8 µM
- TGI (MOLT-4 leukemia): 47.8 µM
- TGI (HT29 colon): 26 µM
- TGI (SK-MEL-5 melanoma): 31 µM
- TGI (RXF 393 renal): 30.1 µM
- TGI (SF-295 CNS): 29.7 µM
- TGI (M14 melanoma): 42 µM
- TGI (A549 NSCLC): 57.3 µM
- TGI (EKVX NSCLC): 59.1 µM
- TGI (CCRF-CEM leukemia): 20.7 µM
- TGI (BT-549 breast): 25 µM
- TGI (NCI-H226 lung): 32.5 µM
- TGI (HCT-116 colon): 43.1 µM
- TGI (A498 renal): 41.6 µM
- TGI (HL-60(TB) leukemia): 40.4 µM
- TGI (UACC-257 melanoma): 33.9 µM
- TGI (NCI-H460 lung): > 100 µM
- TGI (MDA-N): 35.1 µM
- TGI (HOP-62 NSCLC): 33.2 µM
- TGI (HCC-2998 colon): 25 µM
- TGI (MCF7 breast): > 100 µM
- TGI (KM12 colon): 35.8 µM
- TGI (MDA-MB-231 breast): 33.2 µM
- TGI (OVCAR-4 ovarian): > 100 µM
- TGI (SK-MEL-28 melanoma): 36.7 µM
- TGI (NCI-H522 lung): 35.7 µM
- TGI (OVCAR-8 ovarian): 48.2 µM
